Inconclusive results are not listed. Calls of active or inactive are those of the source. The rule behind the calls is not given here.
system: Mycobacterium tuberculosis non-replicating, growth inhibition; test: growth inhibition of non-replicating M. tuberculosis (AID 488890)

| Structure (SMILES) | IC50 |
| --- | --- |
| COC(=O)CCC(=O)Nc1sc(Cc2ccccc2)c(C)c1C(N)=O | 13.6 µM (inactive) |
| Cc1cc(N/N=C/c2ccc(F)cc2)nc(-n2nc(C)cc2C)n1 | 4.92 µM |
| CCCCOC(=O)C1CCCC(C(=O)OCCCC)N1 (centres undefined) | 4.91 µM |
| CN(CC(=O)Nc1ccc(C#N)cc1)Cc1ccc(Cl)c(Cl)c1 | 12.9 µM (inactive) |
| CCCOc1ccc(N2CC(C(=O)Nc3ccccn3)CC2=O)cc1 (centres undefined) | 10.9 µM (inactive) |
| CCCCCn1c(=O)c(C(=O)Nc2cnccn2)c(O)c2ccccc21 | 2.55 µM |
| CCOC(=O)c1ccc(NC(=O)NS(=O)(=O)c2ccc(C)cc2)cc1 | 3.31 µM |
| O=C(Nc1ccc(S(=O)(=O)N2CCOCC2)cc1)c1ccc([N+](=O)[O-])o1 | 5.29 µM |
| O=C(Cc1cccs1)N/N=C\c1ccc([N+](=O)[O-])s1 | 11.6 µM (inactive) |
| COc1ccc(N2C(=O)NC(=O)/C(=C/c3ccc([N+](=O)[O-])s3)C2=O)cc1 | 16.1 µM (inactive) |
| Cc1ccc(C(=O)n2c(N)nc3ccccc32)cc1 | 16.6 µM (inactive) |
| O=C(Nc1ccc2c(c1)CCC2)c1ccc(Br)o1 | 7.88 µM |
| Nc1nc2ccccc2n1CCOc1ccccc1Cl | 7.58 µM |
| COc1cc(OC)nc(-n2ncc(Br)c(Br)c2=O)n1 | 6.07 µM |
| Cc1ccc(NCCC(=O)c2cccs2)cc1 | 2.33 µM |
| CCC(CC)COC(=O)C(C#N)c1nc2ccccc2nc1N1CCN(CC)CC1 (centres undefined) | 15.4 µM (inactive) |
| CN1CCN(/N=C/c2ccc(-c3ccc([N+](=O)[O-])cc3Cl)o2)CC1 | 26.9 µM (inactive) |
| Cc1cc(Cl)ccc1NNC(=O)c1cccs1 | 14.5 µM (inactive) |
| CCCOc1ccc(C(=O)C(CN2CCCC2)c2ccccc2)cc1 (centres undefined) | 3.82 µM |
| Oc1cc(NCc2cccnc2)ccc1-c1nc2ccccc2o1 | 47.1 µM (inactive) |
| COC(=O)CCn1c(C)cc(C(=O)COc2ccccc2C(N)=O)c1C | 9.88 µM |
| CCCCCCn1c(=O)c(C(=O)Nc2nnc(C)s2)c(O)c2ccccc21 | 4.29 µM |
| COC(=O)c1sc(NC(=O)c2ccc([N+](=O)[O-])o2)c(C#N)c1C | 4.3 µM |

| Structure (SMILES) | IC50 |
| --- | --- |
| Cc1cc(NC(=O)COC(=O)COc2ccc(C(=O)c3ccccc3)cc2)no1 | 18.3 µM (inactive) |
| N=c1oc2ccc(Cl)cc2cc1C(=O)NC1CCCCCC1 | 11.6 µM (inactive) |
| O=C(CCN1C(=O)S/C(=C\c2ccc(F)cc2)C1=O)Nc1ccc(C(=O)O)c(O)c1 | 0.17 µM |
| COC(=O)CN(C#N)c1nc(SC)nc(N(C)C)n1 | 15.9 µM (inactive) |
| CCOc1ccc(N2CC(=O)Nc3ccccc3NCC2=O)cc1 | 3.98 µM |
| COc1ccc(/C=C2\Sc3ccc(C(=O)NCCN4CCCCCC4)cc3N(C)C2=O)cc1 | 12.7 µM (inactive) |
| C/C(=N\NC(=O)c1ccccc1OCc1ccc(F)cc1)c1ccccn1 | 2.82 µM |
| O=C(NCc1ccco1)c1nc2ccccc2s1 | 4.22 µM |
| O=C1/C(=C/c2cccs2)COc2ccccc21 | 13.9 µM (inactive) |
| O=[N+]([O-])c1ccc(/C=N/NS(=O)(=O)c2ccc(Cl)cc2)o1 | 14.7 µM (inactive) |
| Cc1ccccc1-n1sc2cc(F)ccc2c1=O | 9.85 µM |
| N#CC1=C(N)Oc2c(ccc3cccnc23)C1c1ccccc1 (centres undefined) | 33.9 µM (inactive) |
| COc1cccc2sc(Nc3nnc(-c4ccc(F)cc4)o3)nc12 | 2.67 µM |
| O=C(COC(=O)CCc1c[nH]c2ccccc12)NCc1ccc2c(c1)OCO2 | 9.66 µM |
| CSc1nc(=S)cc(C)[nH]1 | 6.23 µM |
| CN1/C(=C\C=N\NC(=O)c2cccnc2)C(C)(C)c2ccccc21 | 46.5 µM (inactive) |
| CCOc1ccc(Cn2c(=O)oc3ccccc32)cc1 | 0.83 µM |
| O=C(NNc1ccc([N+](=O)[O-])cc1)c1ccccc1Cl | 9.32 µM |
| Cc1cccc(/C=C/c2onc(C)c2[N+](=O)[O-])n1 | 15 µM (inactive) |
| O=C(Cc1c(F)cccc1Cl)Nc1ncc([N+](=O)[O-])s1 | 12.1 µM (inactive) |
| O=c1c2cc(Cl)ccc2nc(-c2ccccc2Cl)n1O | 15.5 µM (inactive) |
| c1ccc(CNCCC(Cc2ccccc2)c2ccco2)cc1 (centres undefined) | 21.6 µM (inactive) |
| COC(=O)COc1ccc2c(-c3ccc(OC)cc3)cc(=O)oc2c1 | 0.78 µM |

| Structure (SMILES) | IC50 |
| --- | --- |
| Cc1ccc(NC(=O)COc2ccc(-n3ccnc3)cc2)cc1Cl | 6.44 µM |
| CCCS(=O)(=O)c1nnnn1-c1cccc(OC)c1 | 3.56 µM |
| COc1cccc(F)c1C(C[N+](=O)[O-])c1c(N)n(C)c(=O)n(C)c1=O (centres undefined) | 7.59 µM |
| Cc1ccc2nc(N(CCCN(C)C)C(=O)c3ccc4c(c3)CCCC4)sc2c1 | 14.5 µM (inactive) |
| Cc1c(C(=O)NNC(=O)c2csc(N3CCOCC3)n2)oc2ccccc12 | 7.63 µM |
| CC(C)(C)Sc1ccc2nc3c(n2c1)CCCC3 | 9.32 µM |
| CN(C)S(=O)(=O)c1ccc(C(=O)Oc2ccccc2)cc1 | 2.41 µM |
| Cc1cc(Br)ccc1OCC(=O)NNC(=O)c1cnccn1 | 6.09 µM |
| CC(=O)c1ccc(-n2cc(-c3ccc(C(C)(C)C)cc3)[n+]3c2SCCC3)cc1 | 6.18 µM |
| Cc1nc(/N=C(\N)NC(=O)NC2CCCCC2)nc2ccccc12 | 10.3 µM (inactive) |
| O=C(COc1ccc(Br)cc1)Nc1ccc([N+](=O)[O-])cn1 | 6.47 µM |
| O=C(Nc1cccc(S(=O)(=O)N2CCCCC2)c1)c1ccc([N+](=O)[O-])o1 | 4.07 µM |
| CC(C)=CC1C(C(=O)Nc2ccc(Br)cn2)C1(C)C (centres undefined) | 3.57 µM |
| COCCn1c(C)cc(C(=O)COC(=O)c2ccc(Br)o2)c1C | 43.8 µM (inactive) |
| CCOc1cccc2cc(C(=O)NC(C)c3ccccc3)c(=N)oc12 (centres undefined) | 32.9 µM (inactive) |
| O=C(CCC1CCCC1)Nc1ccc(Br)cn1 | 3.88 µM |
| CC(=O)Nc1ccc(OC(=O)c2ccc(Br)c([N+](=O)[O-])c2)cc1 | 8.96 µM |
| O=C(N/N=C/c1ccc(OC(=O)c2cccs2)cc1)c1ccccn1 | 2.94 µM |
| CC1(O)CC(c2ccc(Cl)cc2)=NN1C(=O)c1ccc([N+](=O)[O-])cc1 (centres undefined) | 0.18 µM |
| Oc1ccccc1CN1CCCC(N2CCN(c3cccc(C(F)(F)F)c3)CC2)C1 (centres undefined) | 21.5 µM (inactive) |
| CCn1cc(C(=O)O)c(=O)c2cc(F)c(N3CCN(C(=S)NC(=O)c4ccccc4)CC3)cc21 | 16.8 µM (inactive) |
| Nc1ccccc1Nc1ccccc1 | 1.81 µM |
| CCNc1nc(NC(C)(C)C)nc(N2CCCCC2)n1 | 9.76 µM |

| Structure (SMILES) | IC50 |
| --- | --- |
| CN(C)/C=C1/C(=O)N(c2ccc([N+](=O)[O-])cc2)N=C1c1ccccc1 | 17.7 µM (inactive) |
| COc1ccccc1N=Cc1nc(-c2ccccc2)oc1OC(C)=O | 19.6 µM (inactive) |
| c1ccc(/N=C2\N=C(Nc3ccccn3)c3ccccc32)nc1 | < 0.1 µM |
| C/C(=N\Nc1nc2ccccc2[nH]1)c1ccc(N2CCOCC2)cc1 | 10.5 µM (inactive) |
| O=C(Nc1ccccc1)c1nnsc1S(=O)c1ccc(Cl)cc1 (centres undefined) | 0.34 µM |
| Cc1noc2ncnc(Sc3ccc(Br)cc3)c12 | 6.24 µM |
| CCc1ccc(Cc2cnc(NC(=O)C3=NCCN3)s2)cc1 | 2.85 µM |
| CCCCCn1c(=O)c2ccccc2n2c(CCl)nnc12 | 0.72 µM |
| Cc1cccc(NC(=O)c2ccc(OC3CSC3)cc2)c1 | 28.7 µM (inactive) |
| O=C1NC(=O)C(=Cc2ccc(-c3ccc(Cl)cc3)o2)C(=O)N1 | < 0.1 µM |
| CC(=O)Oc1c(-c2ccc(Br)o2)oc2ccccc2c1=O | 2.86 µM |
| COC(=O)C1CC(=O)N(c2ccc(OCc3ccccc3Cl)cc2)C1 (centres undefined) | 3.53 µM |
| Cc1cccc(C(=O)Nc2nnc(-c3cccnc3)o2)c1 | 7.46 µM |
| COc1cc(CNCCc2ccccc2)cc(Cl)c1OCc1ccccc1 | 7.43 µM |
| Cc1cccc(CC(=O)NCC2CCCCC2)c1 | 16.7 µM (inactive) |
| NC1=NC[C@H](Cc2ccccc2)N1CCCCC1CCCCC1 | 7.48 µM |
| N=C1S/C(=C\c2ccco2)C(=O)N1c1nccs1 | 3.04 µM |
| Cc1cc(Cl)cc(C)c1OCCCCn1ccnc1 | 16.9 µM (inactive) |
| O=C(CN1CCCCC1)Nc1nnc(-c2ccc([N+](=O)[O-])cc2)s1 | 11.7 µM (inactive) |
| COc1cc(CNC2CCCC2)cc(Cl)c1OCc1ccc(F)cc1 | 17.5 µM (inactive) |
| CCN(CC)c1ccc(-c2sc(Nc3ccccc3)n[n+]2-c2ccc(F)cc2)cc1 | 9.04 µM |
| CCOC(=O)C1CCN(CCCSc2ccc(Cl)cc2)CC1 | 46.4 µM (inactive) |
| CC1=NN(C(=O)c2ccccc2Cl)C(O)(c2ccccc2)C1 (centres undefined) | 1.43 µM |

| Structure (SMILES) | IC50 |
| --- | --- |
| O=Cc1c(NCc2ccco2)nc2ccccn2c1=O | 4.93 µM |
| C/C(=N\NC(=O)COc1cccc(C)c1)c1ccc2ccccc2c1O | 0.18 µM |
| COc1ccc2cc(C(=O)C3CCCN(Cc4ccccn4)C3)ccc2c1 (centres undefined) | 6.59 µM |
| CCOC(=O)c1csc(-c2snnc2C)n1 | 5.09 µM |
| CC(C)(C)OC(=O)N/N=C\c1ccc(OC(=O)c2ccco2)cc1 | 12.6 µM (inactive) |
| Cc1ccc(-n2nnnc2CNC(=O)c2ccc([N+](=O)[O-])o2)cc1C | 24.2 µM (inactive) |
| FC(F)(F)c1nnc2ccc(Cl)nn12 | 1.56 µM |
| O=C(N/N=C/c1ccccc1O)c1cccc(C(F)(F)F)c1 | < 0.1 µM |
| Cc1ccc(C)c(-c2nnc(NC(=O)c3ccc([N+](=O)[O-])o3)o2)c1 | 0.46 µM |
| COc1cc(/C=C2\C(=O)N(c3ccc(S(N)(=O)=O)cc3)N=C2C)ccc1OC(=O)c1ccco1 | 7.44 µM |
| CC(C)c1ccc(N2C(=O)CC(Sc3ncn[nH]3)C2=O)cc1 (centres undefined) | 11.2 µM (inactive) |
| O=c1c2c([N+](=O)[O-])cc([N+](=O)[O-])cc2nc2ccccn12 | 9.45 µM |
| CC(C)N1C(=O)NC(=O)C2(Cc3cc([N+](=O)[O-])ccc3N(C)C2c2ccccc2)C1=O (centres undefined) | 14.7 µM (inactive) |
| CSCCOC(=O)COc1ccc(/C=N/NC(=O)c2c(Cl)cnn2C)cc1 | 8.85 µM |
| Cc1cccc(C)c1N1C(=O)CC(N2CCSCC2)C1=O (centres undefined) | 3.44 µM |
| O=C(OCC(=O)N1CCN(c2ccccc2)CC1)c1cnc(Cl)c(Cl)c1 | 4.72 µM |
| CC1=NN(C(=O)COc2ccccc2)C(O)(c2ccccc2)C1 (centres undefined) | 1.36 µM |
| O=C(N/N=C/C=C/c1ccccc1[N+](=O)[O-])c1ccncc1 | 1.23 µM |
| O=C(Nc1ccccc1)c1cc2ccccc2o1 | 4.57 µM |
| COc1ccc2c(c1)C(=C(C#N)C#N)C(=O)N2CCc1ccccc1 | 25 µM (inactive) |
| COC(=O)[C@@H](NC(=O)c1cc(COc2cncc(Cl)c2)on1)c1ccccc1 | 5.58 µM |
| CCOC(=O)c1c(C)n(C)c2ccc(OC(C)C(=O)OC)cc12 (centres undefined) | 14.2 µM (inactive) |
